These results are taken from ChEMBL document CHEMBL6127144, “Optimization of a Piperidine CD4-Mimetic Scaffold Sensitizing HIV-1 Infected Cells to Antibody-Dependent Cellular Cytotoxicity” (ACS Med Chem Lett, 2024).

In series [1] the test system is CD4+ T cell. The experiment in a line: Binding affinity to 17b Antibody in HIV-1 AD8 infected human primary CD4+ T cell by measuring median fluorescence intensity at 50 uM incubated for 48 hrs by Alexa Fluor 647 staining based flow cytometric analysis.
Series [2] concerns CD4+ T cell. Kind of series: Binding affinity to 17b Antibody in HIV-1 JRFL infected human primary CD4+ T cell by measuring median fluorescence intensity at 50 uM incubated for 48 hrs by Alexa Fluor 647 staining based flow cytometric analysis.
For series [3], the system named is Human immunodeficiency virus 1. The experiment in a line: Antiviral activity against HIV-1 CH58TF infected in human primary CD4+ T cell co-cultured with KHYG-1 cells assessed as inhibition of viral growth at 50 uM incubated for 4 to 6 hrs in presence of HIV+ plasma by flow cytometric analysis. It counts as functional, organism-based. Particulars: time 4-6 hrs.

Series [4] concerns Moloney murine leukemia virus. Kind of series: Antiviral activity against Moloney murine leukemia virus infected in human TZM-bl cells assessed as inhibition of viral growth incubated for 48 hrs by luminometer based neutralization assay. The series is classed as functional, organism-based.
The subject of series [5] is Human immunodeficiency virus 1. The experiment in a line: Antiviral activity against HIV-1 JRFL infected in human TZM-bl cells assessed as inhibition of viral growth incubated for 48 hrs by luminometer based neutralization assay. The series is classed as functional, organism-based. Particulars: Human immunodeficiency virus 1, JRFL.
The test system of series [6] is Human immunodeficiency virus 1. The experiment in a line: Antiviral activity against HIV-1 CH58TF infected in human TZM-bl cells assessed as inhibition of viral growth incubated for 48 hrs by luminometer based neutralization assay. It counts as functional, organism-based. To be noted: Human immunodeficiency virus 1, CH58TF.
For series [7], the system named is CD4+ T cell. Kind of series: Binding affinity to 17b Antibody in HIV-1 CH58TF infected human primary CD4+ T cell co-cultured with KHYG-1 cells assessed as antibody driven cell cytotoxicity at 50 uM incubated for 4 to 6 hrs by Alexa Fluor 647 staining based flow cytometric analysis. Particulars: time 4-6 hrs.
For series [8], the system named is Human immunodeficiency virus 1. The experiment in a line: Antiviral activity against HIV-1 AD8 infected in human TZM-bl cells assessed as inhibition of viral growth incubated for 48 hrs by luminometer based neutralization assay. The series is classed as functional, organism-based. To be noted: Human immunodeficiency virus 1, AD8, TZM-bl.
Series [9] relates to CD4+ T cell. The experiment in a line: Binding affinity to 17b Antibody in HIV-1 AD8 infected human primary CD4+ T cell co-cultured with KHYG-1 cells assessed as antibody driven cell cytotoxicity at 50 uM incubated for 4 to 6 hrs by Alexa Fluor 647 staining based flow cytometric analysis. Particulars: time 4-6 hrs.
The test system of series [10] is CD4+ T cell. Kind of series: Binding affinity to 17b Antibody in HIV-1 JRFL infected human primary CD4+ T cell co-cultured with KHYG-1 cells assessed as antibody driven cell cytotoxicity at 50 uM incubated for 4 to 6 hrs by Alexa Fluor 647 staining based flow cytometric analysis. To be noted: time 4-6 hrs.
For series [11], the system named is Human immunodeficiency virus 1. Kind of series: Antiviral activity against HIV-1 JRFL infected in human primary CD4+ T cell co-cultured with KHYG-1 cells assessed as inhibition of viral growth at 50 uM incubated for 4 to 6 hrs in presence of HIV+ plasma by flow cytometric analysis. It counts as functional, organism-based. To be noted: time 4-6 hrs.
For series [12], the system named is TZM. Kind of series: Cytotoxicity against human TZM-bl cells upto 100 uM incubated for 48 hrs by cell-titer glo luminescent assay. The series is classed as toxicity, cell-based.
In series [13] the test system is Human immunodeficiency virus 1. Kind of series: Antiviral activity against HIV-1 AD8 infected in human primary CD4+ T cell co-cultured with KHYG-1 cells assessed as inhibition of viral growth at 50 uM incubated for 4 to 6 hrs in presence of HIV+ plasma by flow cytometric analysis. To be noted: time 4-6 hrs. It counts as functional, organism-based.
For series [14], the system named is CD4+ T cell. The experiment in a line: Binding affinity to 17b Antibody in HIV-1 AD8 infected human primary CD4+ T cell at 50 uM incubated for 48 hrs by Alexa Fluor 647 staining based flow cytometric analysis.
Series [15] deals with CD4+ T cell. Kind of series: Binding affinity to 17b Antibody in HIV-1 JRFL infected human primary CD4+ T cell at 50 uM incubated for 48 hrs by Alexa Fluor 647 staining based flow cytometric analysis.

The structures appear in SMILES notation. The source made the active and inactive calls. No cut-off for these calls is given here.

On to `O=C(Nc1ccc(Cl)c(F)c1)[C@H]1CCCN(C(=O)N(CCO)CCO)C1`, for which the Flu intensity came out at 1.27 in series [1] and 1.04 in series [2].
Consider `O=C(Nc1ccc(Cl)c(F)c1)[C@H]1CCCN(C(=O)N2CCCCC2)C1`, for which the results for the Flu intensity in [1] and in [2] were 1.19 and 0.96, respectively.
As for `CNCc1ccc2c(c1)C[C@H](CNC(=N)N)[C@H]2NC(=O)C(=O)Nc1ccc(Cl)c(F)c1`, the outcome in series [3] and in series [7] was Active. Besides, the IC50 in [4] is over 100 µM; in series [5], 4.6 µM; in series [6], 0.07 µM; in series [8], 0.95 µM.
Take `N=C(N)NCC(=O)N1CCN(C(=O)N2CCC[C@H](C(=O)Nc3ccc(Cl)c(F)c3)C2)CC1`: the outcome in series [9], in series [3], in [7] and in [10] was Active. Further, the IC50 was over 100 µM in [4], 10.7 µM in [5], 0.15 µM in [6] and 1.99 µM in [8]. Also, the outcome in series [11] was inactive. Besides, the Activity entry in series [12] is on record as “Non-Toxic”.
Regarding `NCCNC(=O)N1CCC[C@H](C(=O)Nc2ccc(Cl)c(F)c2)C1`, the result in series [9] and in [13] was inactive. The result in [3] and in series [7] was Active. Besides, the IC50 is over 100 µM in series [4], over 100 µM in series [5], 1.77 µM in series [6] and over 100 µM in series [8].
As for `CN(C)CCCN1CCN(C(=O)N2CCC[C@H](C(=O)Nc3ccc(Cl)c(F)c3)C2)CC1`, the Flu intensity in series [1] stood at 1.39; in series [2], 1.42.
Regarding `O=C(Nc1ccc(Cl)c(F)c1)[C@H]1CCCN(C(=O)N2CCC[C@H]2CO)C1`, the Flu intensity stood at 1.26 in [1] and 1.11 in series [2].
Turning to `COCCN1CCN(C(=O)N2CCC[C@H](C(=O)Nc3ccc(Cl)c(F)c3)C2)CC1`, the Flu intensity in series [1] came to 1.28; in series [2], 1.43.
In the same order, the values of `CN1CCN(C(=O)N2CCC[C@H](C(=O)Nc3ccc(Cl)c(F)c3)C2)CC1` are 1.5 and 1.14.
With `C[C@@H](O)[C@H](N)C(=O)N1CCN(C(=O)N2CCC[C@H](C(=O)Nc3ccc(Cl)c(F)c3)C2)CC1`, the IC50 in series [5] is 13.7 µM; in series [8], 1.55 µM. Further, the Flu intensity result in [1] and in series [2] was “inactive” each time.
As to `CCN1CCN(C(=O)N2CCC[C@H](C(=O)Nc3ccc(Cl)c(F)c3)C2)CC1`, the figures for the Flu intensity in series [1] and in series [2] were 1.23 and 1.36, respectively.
For the compound `O=C(Nc1ccc(Cl)c(F)c1)[C@H]1CCCN(C(=O)N2CCOCC2)C1`, the results for the Flu intensity in series [1] and in series [2] were 1.49 and 1.05, respectively.
For `O=C(Nc1ccc(Cl)c(F)c1)[C@H]1CCCN(C(=O)N2CCN(c3ccccc3)CC2)C1`, the outcome in [14] and in series [15] was inactive.
With `O=C(Nc1ccc(Cl)c(F)c1)[C@H]1CCCN(C(=O)N2CCN(c3ncccn3)CC2)C1`, the result in series [14] and in [15] was inactive.
`O=C(Nc1ccc(Cl)c(F)c1)[C@H]1CCCN(C(=O)c2c[nH]cn2)C1`: the values for the Flu intensity in series [1] and in [2] were 1.07 and 0.93, respectively.
The like results for `O=C(Nc1ccc(Cl)c(F)c1)[C@H]1CCCN(C(=O)N2CCN(CC(=O)N3CCCC3)CC2)C1` were, in that order, 1.52 and 1.3.
With `N=C(N)N1CCC[C@@H]1C(=O)N1CCN(C(=O)N2C[C@H](CO)C[C@H](C(=O)Nc3ccc(Cl)c(F)c3)C2)CC1`, the IC50 in series [8] is over 100 µM.
Take `O=C(Nc1ccc(Cl)c(F)c1)[C@H]1CCCN(C(=O)N2CCN(c3cccc(C(F)(F)F)c3)CC2)C1`: the result in series [14] and in series [15] was inactive.
For the compound `N[C@@H](Cc1ccc(O)cc1)C(=O)N1CCN(C(=O)N2CCC[C@H](C(=O)Nc3ccc(Cl)c(F)c3)C2)CC1`, the IC50 in [5] was determined as 28 µM; in series [8], 2.18 µM. For the same compound, the Flu intensity was 2.48 in [1] and 2.19 in [2].
On to `N=C(N)NCC(=O)N1CCN(C(=O)N2C[C@H](CO)C[C@H](C(=O)Nc3ccc(Cl)c(F)c3)C2)CC1`, for which the IC50 in series [8] is 38.6 µM.
For the compound `NC(=O)C[C@H](N)C(=O)N1CCN(C(=O)N2CCC[C@H](C(=O)Nc3ccc(Cl)c(F)c3)C2)CC1`, the values for the IC50 in series [5] and in [8] were 24.6 µM and 6.21 µM, respectively. The Flu intensity in [1] was 2.14; in [2], 1.53.
For `N=C(N)NCCC[C@H](N)C(=O)N1CCN(C(=O)N2CCC[C@H](C(=O)Nc3ccc(Cl)c(F)c3)C2)CC1`, the outcome in [9], in series [3] and in series [7] was Active. Also, the IC50 in series [4] was over 100 µM; in series [5], at least 72.6 µM; in series [6], 0.22 µM; in [8], 1.27 µM. For the same compound, the figures for the Flu intensity in [1] and in [2] were 2.23 and 1.61, respectively. The Activity entry in series [12] is “Non-Toxic”.
For `NC(=O)[C@@H]1CCCN1C(=O)N1CCC[C@H](C(=O)Nc2ccc(Cl)c(F)c2)C1`, the Flu intensity turned out to be 1.23 in series [1] and 1.01 in series [2].
As for `N=C(N)N1CCC[C@@H]1C(=O)N1CCN(C(=O)N2CCC[C@H](C(=O)Nc3ccc(Cl)c(F)c3)C2)CC1`, the outcome in [9], in [13], in [3], in series [7] and in [10] was Active. In addition, the IC50 in [4] was over 100 µM; in series [5], 8.28 µM; in series [6] it was 0.14 µM; in series [8], 2.92 µM. Besides, the result in series [11] was inactive. For the same compound, in series [12], the Activity entry is given as “Non-Toxic”.
Consider `CC(=O)NCSC[C@H](N)C(=O)N1CCN(C(=O)N2CCC[C@H](C(=O)Nc3ccc(Cl)c(F)c3)C2)CC1`, for which, in [9], the result was Active. For the same compound, the results for the IC50 in series [5] and in series [8] were 40 µM and 1.86 µM, respectively. For the same compound, the Flu intensity in series [1] was determined as 1.75; in series [2], 1.55.
As for `C[C@H](N)C(=O)N1CCN(C(=O)N2CCC[C@H](C(=O)Nc3ccc(Cl)c(F)c3)C2)CC1`, the IC50 worked out at 5.62 µM in series [5] and 1.83 µM in series [8]. Moreover, the values for the Flu intensity in [1] and in [2] were 2.53 and 2.02, respectively.
As for `O=C(Nc1ccc(Cl)c(F)c1)[C@H]1CCCN(C(=O)c2ccncc2)C1`, the Flu intensity turned out to be 1.25 in series [1] and 0.95 in series [2].
Take `O=C(Nc1ccc(Cl)c(F)c1)[C@H]1CCCN(C(=O)N2CCN(c3ccccn3)CC2)C1`: the outcome in series [14] and in series [15] was inactive.
